From US8158615B2, “Anti-viral composition for the topical treatment of Herpes Labialis (cold sores) and method for use thereof” (priority 2006, dated 2012)

Experiments:
Herpes Labialis = details: 1% concentration; application after the prodromal phase; cited from earlier work
HSV-1 = assay: Anti-viral activity of CTC-96 extracted from Dermal Ointment Formulation; type: cell-based; details: extract diluted to 2.5 μg/ml
Source text: FIG. 1 is a graphical representation showing the anti-viral activity of CTC-96 extracted from the dermal formulation.
CTC-96 was mixed to homogeneity with a Dermal Ointment Formulation (petrolatum 10% by weight, camphor 0.92% by weight, menthol 0.5% by weight, methyl salicylate 0.26% by weight, eucalyptus oil 0.30% by weight).

[1] = Percutaneous absorption of CTC-96 from Dermal ointment Formulation, finite dose technique, Franz Diffusion Cells; type: in vitro ADME, human; details: 48 hours; for Mass in Dermis / Mass in Receptor Solution / Percent of Applied Dose in Dermis / Percent of Applied Dose in Epidermis / Percent of Applied Dose in Receptor Solution: single application; for Percent of Applied Dose in Epidermis / Percent of Applied Dose in Receptor Solution / Mass in Epidermis / Mass in Surface wash / Mass, Total Recovery / Percent of Applied Dose in Surfacewash / Percent of Applied Dose, Total Recovery / Mass in Stratum Corneum / Percent of Applied Dose in Stratum Corneum: Mean ± SE; for Percent of Applied Dose in Receptor Solution: n = 3 donors; for Mass in Stratum Corneum / Percent of Applied Dose in Stratum Corneum: tape strip samples
Method: The percutaneous absorption of Doxovir-L® (CTC-96) was evaluated by mixing CTC-96 at two concentrations (10 mg/g and 1 mg/g) to homogeneity with a Dermal ointment Formulation (petrolatum 10% by weight, camphor 0.92% by weight, menthol 0.5% by weight, methyl salicylate 0.26% by weight, eucalyptus oil 0.30% by weight) and was determined in vitro, using the human cadaver skin model using the finite dose technique and Franz Diffusion Cells (12;13). Placebo consisted of the drug formulation without drug. The amount of Dermal ointment that is applied at each treatment was determined is shown in the following table (TABLE 1): The percutaneous absorption of Doxovir-L® (CTC-96) was determined is shown in the following table (TABLE 2 & TABLE 3): […]

Nc1nc2c(ncn2CCC(CO)CO)c(=O)[nH]1 [penciclovir]
reduction in symptoms and time to healing (Herpes Labialis): 20-30%

CC(/C=C(/C)[O-])=NCCN=C(C)/C=C(/C)[O-].Cc1ncc[nH]1.Cc1ncc[nH]1.[Br-].[Co+3] [CTC-96]
% Inhibition Mean ± SD (HSV-1; incubated at 4° C., 3 mo): 91.5 ± 0.5% | % Inhibition Mean ± SD (HSV-1; incubated at 4° C., 6 mo): 91.5 ± 3.4% | % Inhibition Mean ± SD (HSV-1; incubated at 4° C., time 0): 91.8 ± 1.7% | % Inhibition Mean ± SD (HSV-1; incubated at 40° C., 3 mo): 90.1 ± 0.8% | % Inhibition Mean ± SD (HSV-1; incubated at 40° C., 6 mo): 92.1 ± 1.0% | % Inhibition Mean ± SD (HSV-1; incubated at 40° C., time 0): 88.8 ± 2.7% | Mass in Dermis ([1]; drug concentration 1 mg/g): 0 μg/cm2 | Mass in Receptor Solution ([1]; drug concentration 1 mg/g): 0 μg/cm2 | Percent of Applied Dose in Dermis ([1]; drug concentration 1 mg/g): 0% of Applied Dose | Percent of Applied Dose in Epidermis ([1]; drug concentration 1 mg/g): 2.20 ± 1.09% of Applied Dose | Percent of Applied Dose in Receptor Solution ([1]; drug concentration 1 mg/g): 0% of Applied Dose | Mass in Epidermis ([1]; drug concentration 1 mg/g): 0.11 ± 0.05 μg/cm2 | Mass in Surface wash ([1]; drug concentration 1 mg/g): 3.17 ± 0.01 μg/cm2 | Mass, Total Recovery ([1]; drug concentration 1 mg/g): 4.83 ± 0.07 μg/cm2 | Percent of Applied Dose in Surfacewash ([1]; drug concentration 1 mg/g): 7.41 ± 0.30% of Applied Dose | Percent of Applied Dose, Total Recovery ([1]; drug concentration 1 mg/g): 9.67 ± 1.34% of Applied Dose | Mass in Stratum Corneum ([1]; drug concentration 1 mg/g): 0.03 ± 0.00 μg/cm2 | Percent of Applied Dose in Stratum Corneum ([1]; drug concentration 1 mg/g): 0.06 ± 0.06% of Applied Dose | Mass in Dermis ([1]; drug concentration 10 mg/g): 0 μg/cm2 | Mass in Receptor Solution ([1]; drug concentration 10 mg/g): 0 μg/cm2 | Percent of Applied Dose in Dermis ([1]; drug concentration 10 mg/g): 0% of Applied Dose | Percent of Applied Dose in Epidermis ([1]; drug concentration 10 mg/g): 3.63 ± 0.58% of Applied Dose | Percent of Applied Dose in Receptor Solution ([1]; drug concentration 10 mg/g): 0% of Applied Dose | Mass in Epidermis ([1]; drug concentration 10 mg/g): 1.81 ± 0.29 μg/cm2 | Mass in Surface wash ([1]; drug concentration 10 mg/g): 5.41 ± 1.90 μg/cm2 | Mass, Total Recovery ([1]; drug concentration 10 mg/g): 7.86 ± 1.56 μg/cm2 | Percent of Applied Dose in Surfacewash ([1]; drug concentration 10 mg/g): 10.81 ± 3.79% of Applied Dose | Percent of Applied Dose, Total Recovery ([1]; drug concentration 10 mg/g): 15.72 ± 3.12% of Applied Dose | Mass in Stratum Corneum ([1]; drug concentration 10 mg/g): 0.64 ± 0.33 μg/cm2 | Percent of Applied Dose in Stratum Corneum ([1]; drug concentration 10 mg/g): 1.29 ± 0.67% of Applied Dose
